# Test results from PMC12892976, “Alkylation-based optimization of antifungal FPPS inhibitors yields a potent, broad-spectrum lipophilic zoledronate derivative” (mBio, 2025).
# Like-named read-outs stand apart in the source and are kept apart here.
# Legend:
# [1] = test system: Candida glabrata; assay: MIC/MFC broth microdilution (CLSI);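 note: broth microdilution following CLSI M27-Ed4, MFC taken as the lowest drug level yielding no growth once MIC wells were subcultured on SDA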
# Description: (§1) Antifungal susceptibility was determined by broth microdilution according to the CLSI guidelines described in M27-Ed4 ([16]). […] MFC was determined by back-plating drug-treated cultures from MIC broths onto SDA plates. The MFC was defined as the lowest concentration from which no colonies could be cultured.
# [2] = test system: Fusarium oxysporum; assay: MIC broth microdilution (CLSI); type: cell-based; conditions: Fusarium oxysporum 07-200-3012
# Description: Antifungal susceptibility was determined by broth microdilution according to the CLSI guidelines described in M27-Ed4 ([16]).
# [3] = test system: Candida albicans; assay: MIC/MFC broth microdilution (CLSI); type: cell-based; conditions: Candida albicans SC5314
# Description: as §1
# [4] = test system: Cryptococcus neoformans; assay: checkerboard drug interaction (FICI, MICc); type: cell-based; conditions: for INH FD (MIC-MICc fold decrease): fold decrease of inhibitor MIC;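 for all read-outs here: antifungal plus FPPS inhibitor pairs tested against Cryptococcus neoformans by simplified diagonal checkerboard screening, FICI computed under the Loewe additivity model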
# Description: (§2) Drug interactions between antifungals and FPPS inhibitors were investigated using a simplified checkerboard diagonal screening method ([45]). […] FICIs were determined according to the Loewe additivity model ([17]).
# [5] = test system: Saccharomyces cerevisiae; assay: MIC/MFC broth microdilution (CLSI); type: cell-based; conditions: Saccharomyces cerevisiae S288c
# Description: as §1
# [6] = test system: eight fungal species; assay: MIC/MFC summary across the eight fungal species of Table 1; type: cell-based
# Description: The antifungal activity of these compounds was evaluated according to CLSI guidelines ([16]).
# [7] = test system: Cryptococcus neoformans; assay: MIC/MFC broth microdilution (CLSI);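 note: susceptibility testing followed the CLSI M27-Ed4 broth microdilution document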
# Description: as §1
# [8] = test system: Cryptococcus deuterogattii; assay: checkerboard drug interaction (FICI, MICc); type: cell-based; conditions: for INH FD (MIC-MICc fold decrease): fold decrease of inhibitor MIC;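 for all read-outs here: simplified diagonal checkerboard screen pairing antifungal drugs with FPPS inhibitors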
# Description: as §2
# [9] = test system: Candida glabrata; assay: checkerboard drug interaction (FICI, MICc); type: cell-based; conditions: for INH FD (MIC-MICc fold decrease): fold decrease of inhibitor MIC;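 for all read-outs here: simplified diagonal checkerboard screen pairing antifungals with FPPS inhibitors, FICI calculated under the Loewe additivity model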
# Description: as §2
# [10] = test system: Saccharomyces cerevisiae; assay: checkerboard drug interaction (FICI, MICc); type: cell-based; parameters: INH MICc / INH MICc (ITR:INH) / INH MICc (KET:INH) / INH MICc (FLC:INH): unit not given beside the values; conditions: for INH FD (MIC-MICc fold decrease): fold decrease of inhibitor MIC;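 for all read-outs here: simplified diagonal checkerboard screen pairing antifungals with FPPS inhibitors, FICI calculated under the Loewe additivity model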
# [11] = test system: Aspergillus fumigatus; assay: MIC/MFC broth microdilution (CLSI); conditions: ATCC204305
# Description: as §1
# [12] = test system: Trichophyton rubrum; assay: MIC/MFC broth microdilution (CLSI); conditions: Trichophyton rubrum
# Description: as §1
# [13] = C. neoformans, FLC:INH combination
# [14] = C. neoformans, ITR:INH combination
# [15] = C. neoformans, KET:INH combination
# [16] = C. deuterogattii, FLC:INH combination
# [17] = C. deuterogattii, ITR:INH combination
# [18] = C. deuterogattii, KET:INH combination
# [19] = C. glabrata, FLC:INH combination
# [20] = C. glabrata, ITR:INH combination
# [21] = C. glabrata, KET:INH combination
# [22] = S. cerevisiae, FLC:INH combination
# [23] = S. cerevisiae, ITR:INH combination
# [24] = S. cerevisiae, KET:INH combination
compound,measurement,setting,value
"O=P(O)(O)C(O)(Cn1ccnc1)P(=O)(O)O [ZOL, zoledronate]",MIC / MEC,[1]; Candida glabrata CBS138 (ATCC 2001),8 µg/mL
same,MFC,"[1]; Nakaseomyces glabratus, CBS138",32 µg/mL
same,MIC,"[1]; Nakaseomyces glabratus, CBS138",8 µg/mL
same,MIC / MEC,[2],>256 µg/mL
same,MFC,[3],> 128 µg/mL
same,MIC,[3],128 µg/mL
same,MIC / MEC,[3],128 µg/mL
same,FICI,[4]; 5FC:ZOL,0.75
same,FICI,[4]; AMB:ZOL,2.25
same,FICI,[4]; [13],0.38
same,INH MICc,"[4]; C. neoformans, FLC:INH combination, MIC of the inhibitor in combination with FLC",8
same,FLC FD (MIC-MICc fold decrease),"[4]; C. neoformans, FLC:INH combination, fold decrease of FLC MIC",4
same,INH FD (MIC-MICc fold decrease),[4]; [13],8
same,FICI,[4]; [14],0.19
same,INH MICc,"[4]; C. neoformans, ITR:INH combination, MIC of the inhibitor in combination with ITR",4
same,ITR FD (MIC-MICc fold decrease),"[4]; C. neoformans, ITR:INH combination, fold decrease of ITR MIC",8
same,INH FD (MIC-MICc fold decrease),[4]; [14],16
same,FICI,[4]; [15],0.19
same,INH MICc,"[4]; C. neoformans, KET:INH combination, MIC of the inhibitor in combination with KET",4
same,KET FD (MIC-MICc fold decrease),"[4]; C. neoformans, KET:INH combination, fold decrease of KET MIC",8
same,INH FD (MIC-MICc fold decrease),[4]; [15],16
same,FICI,[4]; CAS:ZOL,≥4
same,FICI,[4]; FLC:ZOL,0.38
same,FICI,[4]; ITR:ZOL,0.19
same,FICI,[4]; KET:ZOL,0.19
same,FICI,[4]; VOR:ZOL,0.98
same,bisphosphonate MICc,[4]; ZOL with 5FC,16
same,bisphosphonate MICc,[4]; ZOL with AMB,8
same,bisphosphonate MICc,[4]; ZOL with CAS,128
same,bisphosphonate MICc,[4]; ZOL with FLC,8
same,bisphosphonate MICc,[4]; ZOL with ITR,4
same,bisphosphonate MICc,[4]; ZOL with KET,4
same,bisphosphonate MICc,[4]; ZOL with VOR,16
same,FICI,"[4]; with FLC, Cryptococcus neoformans",0.38
same,FICI,"[4]; with ITR, Cryptococcus neoformans",0.19
same,FICI,"[4]; with KET, Cryptococcus neoformans",0.19
same,MFC,[5],> 128 µg/mL
same,MIC,[5],> 128 µg/mL
same,MIC / MEC,[5],256 µg/mL
same,Geometric mean MFC,[6]; across eight species,181.0 µg/mL
same,Geometric mean MIC,[6]; across eight species,98.7 µg/mL
same,MFC,"[6]; across eight species, read-out: Geometric mean MFC",181 µg/mL
same,MIC,"[6]; geometric mean across eight species, read-out: GM fungal MIC",98.7 µg/mL
same,MIC,[6]; read-out: Geometric mean MIC,98.7 µg/mL
same,MFC,[7]; Cryptococcus neoformans,> 128 µg/mL
same,MIC,[7]; Cryptococcus neoformans,32 µg/mL
same,MIC / MEC,[7]; Cryptococcus neoformans H99,32 µg/mL
same,FICI,[8]; 5FC:ZOL,1.02
same,FICI,[8]; AMB:ZOL,2
same,FICI,[8]; [16],0.25
same,INH MICc,"[8]; C. deuterogattii, FLC:INH combination, MIC of the inhibitor in combination with FLC",8
same,FLC FD (MIC-MICc fold decrease),"[8]; C. deuterogattii, FLC:INH combination, fold decrease of FLC MIC",8
same,INH FD (MIC-MICc fold decrease),[8]; [16],8
same,FICI,[8]; [17],0.38
same,INH MICc,"[8]; C. deuterogattii, ITR:INH combination, MIC of the inhibitor in combination with ITR",8
same,ITR FD (MIC-MICc fold decrease),"[8]; C. deuterogattii, ITR:INH combination, fold decrease of ITR MIC",4
same,INH FD (MIC-MICc fold decrease),[8]; [17],8
same,FICI,[8]; [18],0.31
same,INH MICc,"[8]; C. deuterogattii, KET:INH combination, MIC of the inhibitor in combination with KET",16
same,KET FD (MIC-MICc fold decrease),"[8]; C. deuterogattii, KET:INH combination, fold decrease of KET MIC",16
same,INH FD (MIC-MICc fold decrease),[8]; [18],4
same,FICI,[8]; CAS:ZOL,1.5
same,FICI,[8]; FLC:ZOL,0.25
same,FICI,[8]; ITR:ZOL,0.38
same,FICI,[8]; KET:ZOL,0.31
same,FICI,[8]; VOR:ZOL,0.5
same,bisphosphonate MICc,[8]; ZOL with 5FC,128
same,bisphosphonate MICc,[8]; ZOL with AMB,128
same,bisphosphonate MICc,[8]; ZOL with CAS,64
same,bisphosphonate MICc,[8]; ZOL with FLC,8
same,bisphosphonate MICc,[8]; ZOL with ITR,8
same,bisphosphonate MICc,[8]; ZOL with KET,16
same,bisphosphonate MICc,[8]; ZOL with VOR,32
same,FICI,"[8]; with FLC, Cryptococcus deuterogattii",0.25
same,FICI,"[8]; with ITR, Cryptococcus deuterogattii",0.38
same,FICI,"[8]; with KET, Cryptococcus deuterogattii",0.31
same,FICI,[9]; 5FC:ZOL,0.63
same,FICI,[9]; AMB:ZOL,0.63
same,FICI,[9]; [19],0.09
same,INH MICc,"[9]; C. glabrata, FLC:INH combination, MIC of the inhibitor in combination with FLC",1
same,FLC FD (MIC-MICc fold decrease),"[9]; C. glabrata, FLC:INH combination, fold decrease of FLC MIC",16
same,INH FD (MIC-MICc fold decrease),[9]; [19],8
same,FICI,[9]; [20],0.16
same,INH MICc,"[9]; C. glabrata, ITR:INH combination, MIC of the inhibitor in combination with ITR",1
same,ITR FD (MIC-MICc fold decrease),"[9]; C. glabrata, ITR:INH combination, fold decrease of ITR MIC",8
same,INH FD (MIC-MICc fold decrease),[9]; [20],8
same,FICI,[9]; [21],0.31
same,INH MICc,"[9]; C. glabrata, KET:INH combination, MIC of the inhibitor in combination with KET",2
same,KET FD (MIC-MICc fold decrease),"[9]; C. glabrata, KET:INH combination, fold decrease of KET MIC",4
same,INH FD (MIC-MICc fold decrease),[9]; [21],4
same,FICI,[9]; CAS:ZOL,2.05
same,FICI,[9]; FLC:ZOL,0.09
same,FICI,[9]; ITR:ZOL,0.16
same,FICI,[9]; KET:ZOL,0.31
same,FICI,[9]; VOR:ZOL,0.38
same,bisphosphonate MICc,[9]; ZOL with 5FC,1
same,bisphosphonate MICc,[9]; ZOL with AMB,1
same,bisphosphonate MICc,[9]; ZOL with CAS,1
same,bisphosphonate MICc,[9]; ZOL with FLC,1
same,bisphosphonate MICc,[9]; ZOL with ITR,1
same,bisphosphonate MICc,[9]; ZOL with KET,2
same,bisphosphonate MICc,[9]; ZOL with VOR,1
same,FICI,"[9]; with FLC, Candida glabrata",0.09
same,FICI,"[9]; with ITR, Candida glabrata",0.16
same,FICI,"[9]; with KET, Candida glabrata",0.31
same,FICI,[10]; 5FC:ZOL,1.25
same,FICI,[10]; AMB:ZOL,2.5
same,FICI,[10]; CAS:ZOL,1.01
same,FICI,[10]; FLC:ZOL,0.38
same,FICI,[10]; ITR:ZOL,0.5
same,FICI,[10]; KET:ZOL,0.25
same,FICI,[10]; [22],0.38
same,FLC MICc,"[10]; S. cerevisiae, FLC:INH combination, MIC of FLC in combination with the inhibitor",1
same,INH MICc,"[10]; S. cerevisiae, FLC:INH combination, MIC of the inhibitor in combination with FLC",32
same,FLC FD (MIC-MICc fold decrease),"[10]; S. cerevisiae, FLC:INH combination, fold decrease of FLC MIC",4
same,INH FD (MIC-MICc fold decrease),[10]; [22],8
same,FICI,[10]; [23],0.5
same,ITR MICc,"[10]; S. cerevisiae, ITR:INH combination, MIC of ITR in combination with the inhibitor",0.063
same,INH MICc,"[10]; S. cerevisiae, ITR:INH combination, MIC of the inhibitor in combination with ITR",64
same,ITR FD (MIC-MICc fold decrease),"[10]; S. cerevisiae, ITR:INH combination, fold decrease of ITR MIC",4
same,INH FD (MIC-MICc fold decrease),[10]; [23],4
same,FICI,[10]; [24],0.25
same,KET MICc,"[10]; S. cerevisiae, KET:INH combination, MIC of KET in combination with the inhibitor",0.25
same,INH MICc,"[10]; S. cerevisiae, KET:INH combination, MIC of the inhibitor in combination with KET",32
same,KET FD (MIC-MICc fold decrease),"[10]; S. cerevisiae, KET:INH combination, fold decrease of KET MIC",8
same,INH FD (MIC-MICc fold decrease),[10]; [24],8
same,FICI,[10]; VOR:ZOL,0.75
same,bisphosphonate MICc,[10]; ZOL with 5FC,64
same,bisphosphonate MICc,[10]; ZOL with AMB,128
same,bisphosphonate MICc,[10]; ZOL with CAS,2
same,bisphosphonate MICc,[10]; ZOL with FLC,32
same,bisphosphonate MICc,[10]; ZOL with ITR,64
same,bisphosphonate MICc,[10]; ZOL with KET,32
same,bisphosphonate MICc,[10]; ZOL with VOR,64
same,FICI,"[10]; with FLC, Saccharomyces cerevisiae",0.38
same,FICI,"[10]; with ITR, Saccharomyces cerevisiae",0.50
same,FICI,"[10]; with KET, Saccharomyces cerevisiae",0.25
same,MFC,[11],> 128 µg/mL
same,MIC,[11],> 128 µg/mL
same,MIC / MEC,[11],>256 µg/mL
same,MFC,[12],> 128 µg/mL
same,MIC,[12],128 µg/mL
